Marks after values point to notes of the source that are not given here.
Columns and labels:
[1] = test system: male broilers subjected to chronic cyclic heat stress; assay: Animal performance (BW, ADG, ADFI, F:G, mortality, EPEF) with chronic cyclic heat stress in the finisher phase; format: in vivo, broiler chickens (Ross 308); conditions: for FIhs (percentage of total feed intake consumed during hours of heat stress): 6 h heat stress per day, d-24 till d-39; for F:G corrected: total d0-d39, corrected to final body weight of 3050 g
Source text: The experimental design consisted of one control group (T1) and two other groups receiving the control diet supplemented with increasing levels of DMS (dimethyl sulfone), specifically 0.1% DMS (T2) and 0.2% DMS (T3). Treatments were replicated in 12 pens each in a completely randomized block design. Block refers to physical allocation in the experimental facility. All the animal trial was realized in compliance with the Ethics Committee of Faculty of Veterinary Medicine (Ghent University, EC2018-71).
The experiment was conducted at the experimental facilities of the Department of Animal Sciences and Aquatic Ecology of Ghent University, located in Melle, Belgium. A total of 792 male broiler chickens (Ross 308, Aviagen Group) were provided by Vervaeke-Belavi hatchery (Tielt, Belgium). Larger treatment effects are expected with males, as they are more sensitive to heat stress (HS) (Cahaner and Leenstra, 1992). The experiment consisted in three rearing phases: starter (from d-0 to d-10), grower (from d-10 to d-21) and finisher (from d-21 to d-39). The one-day old chicks were weighted and equally spread among the pens according to their body weight (BW). Pens were randomly allocated to the treatment groups. The initial average animal BW was 41.3±0.31 g at the beginning of the experiment. The newly selected chicks were housed in a single climate-controlled room, which contained 36 pens of 22 animals each. […] The room was equipped with liner drinkers (two nipples per pen), and each pen had one tube-type metallic feeder. Temperature in starter and grower phase was set to decrease linearly from 34° C., at d-0 until a basal temperature of 22° C., at d-24. The light of the room was turned on 23 h in period d-0 to d-7, and then turned on at 4:00 and switched off at 22:00 during the rest of the experiment (18L:6D).
(§1) The finisher period started at d-21, and the chronic cyclic heat stress (HS) protocol was applied from d-24 until d-39. Starting from d-24, the temperature was increased from 22° C. to 34° C. for 6 hours per day (from 9:00 to 15:00) with relative air humidity (RH) between 52 and 58%. From 8:00 to 9:00, the temperature was increased from 22° C. to 34° C., and from 15:00 to 16:00, the temperature was decreased from 34° C. to 22° C. The rest of the day the temperature was 22° C. The room was equipped with heaters with thermostats, and air circulators to enable the desired temperature and RH to be maintained, providing sufficient ventilation and air conditions. RH was adjusted with manual spraying of water on stable walls, periodically. The temperature and the RH were recorded at 10-min intervals with a dry bulb thermo-hygrometer (Escort RH iLog, Escort Verification Technologies Inc., Buchanan, United States).
Wheat and soybean meal-based feeds were formulated to meet the nutrient requirements of broiler chickens, according to Ross308 recommendations or slightly lower to avoid excessive mortality in the finisher phase. […] The final formulation was approved by the commissioner. The test substance dimethyl sulfone was added on top at 0.1 and 0.2% in T2 and T3 in all rearing phases, respectively. Diets were processed by Research Dietary Services (RDS, Wijk bij Duurstede, The Netherlands) and delivered to Ghent University. All the diets were provided as pellets during all rearing phases. The chickens were fed ad libitum and had free access to water during the whole experiment.
For all performance indices, the pen is the experimental unit. Total feed intake (FI) was recorded for each rearing period. In addition, FI during HS period was recorded every day, weighing the feeders before (at 8:00) and after (at 16:00) HS every day. That allows the calculation of the relative FI during period with HS relative to the total FI for each day during HS (d-24 to d-39). The total body weight (BW) of each pen was recorded at d-0, d-10, d-21 and d-39, and divided by the number of chickens in the pen at that day to have the average BW for each pen. […]

[2] = test system: male broilers subjected to chronic cyclic heat stress; assay: Rectal temperature and panting frequency during heat stress; format: in vivo, broiler chickens (Ross 308)
Description: as §1
Rectal temperature and panting frequency (video analyses) (for 2 selected birds per pen on 3 days: d-24, d-31 and d-38, measured after 4 h of heat stress that day)

[3] = 0.1% DMS in diet (T2), d-24 to d-39, excluding pen 24
[4] = 0.1% DMS in diet (T2), finisher d21-d39, heat stress d-24 till d-39
[5] = 0.1% DMS in diet (T2), grower d10-d21
[6] = 0.1% DMS in diet (T2), starter d0-d10
[7] = 0.1% DMS in diet (T2), total d0-d39
[8] = 0.2% DMS in diet (T3), d-24 to d-39, excluding pen 24
[9] = 0.2% DMS in diet (T3), finisher d21-d39, heat stress d-24 till d-39
[10] = 0.2% DMS in diet (T3), grower d10-d21
[11] = 0.2% DMS in diet (T3), starter d0-d10
[12] = 0.2% DMS in diet (T3), total d0-d39
[13] = 0.1% DMS in diet (T2), Total, all days
[14] = 0.1% DMS in diet (T2), d-24, during heat stress
[15] = 0.1% DMS in diet (T2), d-31, during heat stress
[16] = 0.1% DMS in diet (T2), d-38, during heat stress
[17] = 0.2% DMS in diet (T3), Total, all days
[18] = 0.2% DMS in diet (T3), d-24, during heat stress
[19] = 0.2% DMS in diet (T3), d-31, during heat stress
[20] = 0.2% DMS in diet (T3), d-38, during heat stress

## CS(C)(=O)=O [DMS, dimethyl sulfone]
[1]; 0.1% DMS in diet (T2)
  FIhs (percentage of total feed intake consumed during hours of heat stress): 27.9%
  F:G corrected: 1.54
[1]; [3]
  Cases of mortality: 10
  Cases of mortality+culling: 12
[1]; 0.1% DMS in diet (T2), d-24 to d-39, pen 24 included
  Cases of mortality+culling: 17
[1]; [4]
  ADFI: 179 g/day
  ADG: 106 g/day
  F:G: 1.71
  Final BW: 3100 g
  Mortality: 4.7%
  Mortality + culling: 6.0%
[1]; [5]
  ADFI: 103 g/day
  ADG: 75.5^a g/d
  ADG higher as compared to control: 2.6%
  F:G: 1.36^b
  F:G reduced as compared to control: 6 points
  Final BW: 1189 g
  Mortality: 1.1%
  Mortality + culling: 1.1%
[1]; [6]
  ADFI: 32.5 g/day
  ADG: 31.7 g/day
  F:G: 1.03
  Final BW: 359 g
  Mortality: 0.0%
  Mortality + culling: 0.0%
[1]; [7]
  ADFI: 116 g/day
  ADG: 78.4 g/day
  EPEF (European production efficiency factor): 488
  F:G: 1.53
  Mortality: 5.9%
  Mortality + culling: 7.3%
[1]; 0.2% DMS in diet (T3)
  FIhs (percentage of total feed intake consumed during hours of heat stress): 27.9%
  F:G corrected: 1.54
[1]; [8]
  Cases of mortality: 8
  Cases of mortality+culling: 8
[1]; 0.2% DMS in diet (T3), d-24 to d-39, pen 24 included
  Cases of mortality+culling: 8
[1]; [9]
  ADFI: 178 g/day
  ADG: 104 g/day
  F:G: 1.72
  Final BW: 3066 g
  Mortality: 3.1%
  Mortality + culling: 3.1%
[1]; [10]
  ADFI: 102 g/day
  ADG: 76.1^a g/d
  ADG higher as compared to control: 3.4%
  F:G: 1.35^b
  F:G reduced as compared to control: 7 points
  Final BW: 1194 g
  Mortality: 0.4%
  Mortality + culling: 0.8%
[1]; [11]
  ADFI: 32.3 g/day
  ADG: 31.6 g/day
  F:G: 1.03
  Final BW: 357 g
  Mortality: 0.8%
  Mortality + culling: 0.8%
[1]; [12]
  ADFI: 117 g/day
  ADG: 77.6 g/day
  EPEF (European production efficiency factor): 491
  F:G: 1.54
  Mortality: 4.2%
  Mortality + culling: 4.5%
[2]; [13]
  Panting: 141 #/min
  Rectal temperature: 42.6^ab ° C.
[2]; [14]
  Panting: 119^ab #/min
  Rectal temperature: 42.3 °C
[2]; [15]
  Panting: 158 #/min
  Rectal temperature: 42.9 °C
[2]; [16]
  Panting: 147 #/min
  Rectal temperature: 42.7 °C
[2]; [17]
  Panting: 137 #/min
  Rectal temperature: 42.5^b ° C.
[2]; [18]
  Panting: 112^b #/min
  Rectal temperature: 42.3 °C
[2]; [19]
  Panting: 143 #/min
  Rectal temperature: 42.6 °C
[2]; [20]
  Panting: 152 #/min
  Rectal temperature: 42.6 °C

Source: patent US20230225990A1, “DIMETHYL SULFONE FOR TREATMENT OF CHRONICALLY HEAT STRESSED POULTRY” (Evonik Operations GmbH, priority 2020, published 2023)
